In US9943506B2, “BCL6 inhibitors as anticancer agents” (Cornell University, priority 2013, dated 2018):
Read-outs that look alike come from different tables or passages of the source.

Experiments:
Assay type in all cases: cell-based
Ly7 DLBCL cells = assay: Growth inhibition of DLBCL cells, Ly7
Method: (§1) 50,000 cells per well were treated for 48 hours with different concentrations of the compounds in 96 well plates, using DMSO as a control. Then, viability was determined with Cell Titer Blue™ (Promega) and growth inhibition was calculated as the percentage of viable cells with respect to cells treated with DMSO alone. GI50 values were determined by dose-response curves.
(§2) 293T cells were grown in Dulbecco's modified Eagles medium supplemented with 10% fetal bovine serum (FBS) (Gemini Bio-Products, Woodland, Calif.) and 1% penicillin-streptomycin. DLBCL cell lines OCI-Ly1, OCI-Ly1-B50, OCI-Ly7, OCI-Ly10 and OCI-Ly19 were grown in 80% Iscove's medium, 20% FBS and penicillin G/streptomycin. DLBCL cell lines Toledo, Farage, SU-DHL4, DOHH-2, SC-1, RCK8, TMD8, HBL-1, Ly3, Karpas 422 and SU-DHL6 were cultured in 90% RPMI medium, 10% FBS, 2 mM glutamine, 10 mM Hepes and penicillin G/streptomycin. All cell lines were cultured at 37° C. in a humidified atmosphere of 5% CO2.

Toledo DLBCL cells = assay: Growth inhibition of DLBCL cells, Toledo; settings: Homo sapiens
Method: as §1, §2

SUDHL6 DLBCL cells = assay: Growth inhibition of DLBCL cells, SUDHL6; settings: Homo sapiens, SU-DHL-6
Method: as §1, §2

Ly1B50 DLBCL cells = assay: Growth inhibition of DLBCL cells, Ly1B50; settings: Table 2; BCL-6 independent; 48 hours
Method: as §1, §2

Karpas 422 DLBCL cells = assay: Growth inhibition of DLBCL cells, Karpas 422; settings: Homo sapiens, Table 2, BCL-6 independent, 48 hours, read-out: GI50 Karpas 422
Method: as §1, §2

Ly10 DLBCL cells = assay: Growth inhibition of DLBCL cells, Ly10; settings: Table 2, BCL-6 dependent, 48 hours
Method: as §1, §2

Ly3 DLBCL cells = assay: Growth inhibition of DLBCL cells, Ly3; settings: Table 2; BCL-6 dependent; 48 hours
Method: as §1, §2

[1] = Table 10, BCL6 dependent, read-out: GI50 SUDHL6
[2] = 48 h, Table 2, BCL-6 independent
[3] = Table 2, BCL-6 dependent, 48 hours, read-out: GI50 SUDH6
[4] = Table 2, BCL-6 dependent, 48 hours
[5] = Table 2, BCL-6 independent, 48 hours

| SMILES | GI50 (Ly7 DLBCL cells; Table 10, BCL6 dependent) [µM] | GI50 (Toledo DLBCL cells; Table 10, BCL6 independent) [µM] | GI50 (SUDHL6 DLBCL cells; [1]) [µM] | GI50 (Ly7 DLBCL cells; Table 13, BCL6 dependent) [µM] | GI50 (Toledo DLBCL cells; Table 13, BCL6 independent) [µM] | GI50 (SUDHL6 DLBCL cells; Table 13, BCL6 dependent, read-out: GI50 SUDHL6) [µM] | GI50 (Ly7 DLBCL cells; 48 h, Table 2, BCL-6 dependent) [µM] | GI50 (Ly1B50 DLBCL cells) [µM] | GI50 (Karpas 422 DLBCL cells) [µM] | GI50 (Ly10 DLBCL cells) [µM] | GI50 (Toledo DLBCL cells; [2]) [µM] | GI50 (SUDHL6 DLBCL cells; [3]) [µM] | GI50 (Ly3 DLBCL cells) [µM] | GI50 (Ly7 DLBCL cells; [4]) [µM] | GI50 (Toledo DLBCL cells; [5]) [µM] |
| --- | --- | --- | --- | --- | --- | --- | --- | --- | --- | --- | --- | --- | --- | --- | --- |
| Cc1ccc(COC(=O)Cn2c(=O)oc3cc(Cl)ccc32)cc1 [Compound 333] | > 125 | > 125 | > 125 |  |  |  |  |  |  |  |  |  |  |  |  |
| Cc1cccc(COC(=O)Cn2c(=O)oc3cc(Cl)ccc32)c1 [Compound 334] | > 125 | > 125 | > 125 |  |  |  |  |  |  |  |  |  |  |  |  |
| O=C(Cn1c(=O)oc2cc(Cl)ccc21)OCc1ccc(C(F)(F)F)cc1 [Compound 339] | > 125 | > 125 | > 125 |  |  |  |  |  |  |  |  |  |  |  |  |
| C[C@@H](OC(=O)Cn1c(=O)oc2cc(Cl)ccc21)c1ccccc1 [Compound 341] | > 125 | > 125 | > 125 |  |  |  |  |  |  |  |  |  |  |  |  |
| COc1ccc2[nH]c(SCc3ccccc3)nc2c1 [Compound 1059] |  |  |  | > 125 | > 125 | > 125 |  |  |  |  |  |  |  |  |  |
| O=C(O)CCN1C(=O)/C(=C2/C(=O)Nc3c(Cl)cc(Cl)cc32)SC1=S [Compound 1093, (Z)-3-(5-(5,7-Dichloro-2-oxoindolin-3-ylidene)-4-oxo-2-thioxothiazolidin-3-yl)propanoic acid] |  |  |  |  |  |  | 30 ± 9 | > 40 | > 40 | 21 ± 12 | > 40 | > 40 | > 40 |  |  |
| Cc1cc(Cl)cc2c1NC(=O)/C2=C1\SC(=S)N(CCC(=O)O)C1=O [Compound 1095, (Z)-3-(5-(5-Chloro-7-methyl-2-oxoindolin-3-ylidene)-4-oxo-2-thioxothiazolidin-3-yl)propanoic acid] |  |  |  |  |  |  | > 40 | > 40 | > 40 | > 40 | > 40 | > 40 | > 40 |  |  |
| Cc1ccc2c(c1)/C(=C1/SC(=S)N(CCC(=O)O)C1=O)C(=O)N2 [Compound 1097, (Z)-3-(5-(5-Methyl-2-oxoindolin-3-ylidene)-4-oxo-2-thioxothiazolidin-3-yl)propanoic acid] |  |  |  |  |  |  | > 40 | > 40 | > 40 | 18 ± 8 | > 40 | > 40 | > 40 |  |  |
| COc1cc(Br)cc2c1NC(=O)/C2=C1\SC(=S)N(CCC(=O)O)C1=O [Compound 1113, (Z)-3-(5-(5-Bromo-7-methoxy-2-oxoindolin-3-ylidene)-4-oxo-2-thioxothiazolidin-3-yl)propanoic acid] |  |  |  |  |  |  | 12 ± 7 | > 40 | > 40 | > 40 | > 40 | > 40 | > 40 |  |  |
| O=C(O)CCN1C(=O)/C(=C2/C(=O)Nc3ccc(F)cc32)SC1=S [Compound 1115, (Z)-3-(5-(5-Fluoro-2-oxoindolin-3-ylidene)-4-oxo-2-thioxothiazolidin-3-yl)propanoic acid] |  |  |  |  |  |  | 24 ± 6 | > 40 | > 40 | 34 ± 3 | > 40 | 26 ± 7 | 22 ± 9 |  |  |
| O=C(O)CCN1C(=O)/C(=C2/C(=O)Nc3c(F)cccc32)SC1=S [Compound 1117, (Z)-3-(5-(7-Fluoro-2-oxoindolin-3-ylidene)-4-oxo-2-thioxothiazolidin-3-yl)propanoic acid] |  |  |  |  |  |  | 36 ± 1 | > 40 | > 40 | > 40 | > 40 | 25 ± 4 | 21 ± 4 |  |  |
| O=C(O)CCN1C(=O)/C(=C2/C(=O)Nc3ccc(Br)cc32)SC1=S [Compound 1165, (Z)-3-(5-(5-Bromo-2-oxoindolin-3-ylidene)-4-oxo-2-thioxothiazolidin-3-yl)propanoic acid] |  |  |  |  |  |  | > 40 | > 40 | > 40 | 25 ± 9 | > 40 | > 40 | 17 ± 6 |  |  |
| O=C(O)CCN1C(=O)/C(=C2/C(=O)Nc3c(Cl)cccc32)SC1=S [Compound 1167, (Z)-3-(5-(7-Chloro-2-oxoindolin-3-ylidene)-4-oxo-2-thioxothiazolidin-3-yl)propanoic acid] |  |  |  |  |  |  | 22 ± 1 | > 40 | > 40 | 24 ± 2 | > 40 | 29 ± 1 | > 40 |  |  |
| O=C(O)CCN1C(=O)/C(=C2/C(=O)Nc3ccc([N+](=O)[O-])cc32)SC1=S [Compound 1169, (Z)-3-(5-(5-Nitro-2-oxoindolin-3-ylidene)-4-oxo-2-thioxothiazolidin-3-yl)propanoic acid] |  |  |  |  |  |  | 28 ± 7 | > 40 | 27 ± 8 | 20 ± 10 | > 40 | 30 ± 3 | 29 ± 5 |  |  |
| O=C(O)CCN1C(=O)/C(=C2/C(=O)Nc3ccccc32)SC1=S [Compound 2001, (Z)-3-(4-Oxo-5-(2-oxoindolin-3-ylidene)-2-thioxothiazolidin-3-yl)propanoic acid] |  |  |  |  |  |  | > 40 | > 40 | > 40 | > 40 | > 40 | > 40 | > 40 |  |  |
| CCOC(=O)CCN1C(=O)/C(=C2/C(=O)Nc3ccc(Cl)cc32)SC1=S [Compound 2003, (Z)-Ethyl 3-(5-(5-chloro-2-oxoindolin-3-ylidene)-4-oxo-2-thioxothiazolidin-3-yl)propanoate] |  |  |  |  |  |  | > 6 | > 6 | > 6 | > 6 | > 6 | > 6 | > 6 |  |  |
| O=C(O)CCN1C(=O)/C(=C2/C(=O)Nc3ccc(I)cc32)SC1=S [Compound 2005, (Z)-3-(5-(5-Iodo-2-oxoindolin-3-ylidene)-4-oxo-2-thioxothiazolidin-3-yl)propanoic acid] |  |  |  |  |  |  | > 40 | > 40 | > 40 | 21 ± 2 | > 40 | 25 ± 6 | > 40 |  |  |
| O=C(O)CCN1C(=O)C(C2(O)C(=O)Nc3ccc(F)cc32)SC1=S (centres unmarked) [Compound 2021] |  |  |  |  |  |  |  | > 40 | > 40 | > 40 |  | > 40 | > 40 | > 40 | > 40 |
| O=C(O)CCN1C(=O)SC(C2(O)C(=O)Nc3ccc(Cl)cc32)C1=O (centres unmarked) [Compound 2023] |  |  |  |  |  |  |  | > 40 | > 40 | > 40 |  | 21 ± 3 | > 40 | 21 ± 10 | > 40 |
| O=C(O)CCN1C(=O)C(C2(O)C(=O)Nc3ccc(Br)cc32)SC1=S (centres unmarked) [Compound 2025] |  |  |  |  |  |  |  | > 40 | 22 ± 7 | 15 ± 8 |  | 14 ± 2 | > 40 | 13 ± 1 | > 40 |
| O=C(O)CCN1C(=O)SC(C2(O)C(=O)Nc3ccc(I)cc32)C1=O (centres unmarked) [Compound 2027] |  |  |  |  |  |  |  | > 40 | > 40 | 6 ± 2 |  | 7 ± 1 | 14 ± 3 | 8 ± 1 | > 40 |
| O=C(O)CN1C(=O)/C(=C2/C(=O)Nc3ccc(Cl)cc32)SC1=S [Compound 2031, (Z)-2-(5-(5-Chloro-2-oxoindolin-3-ylidene)-4-oxo-2-thioxothiazolidin-3-yl)acetic acid] |  |  |  |  |  |  | > 40 | > 40 | > 40 | > 40 | > 40 | > 40 | > 40 |  |  |
| O=C(O)CN1C(=O)/C(=C2/C(=O)Nc3ccc(F)cc32)SC1=S [Compound 2033, (Z)-2-(5-(5-Fluoro-2-oxoindolin-3-ylidene)-4-oxo-2-thioxothiazolidin-3-yl)acetic acid] |  |  |  |  |  |  | > 40 | > 40 | > 40 | > 40 | > 40 | > 40 | > 40 |  |  |
| O=C(O)CN1C(=O)/C(=C2/C(=O)Nc3c(F)cccc32)SC1=S [Compound 2035, (Z)-2-(5-(7-Fluoro-2-oxoindolin-3-ylidene)-4-oxo-2-thioxothiazolidin-3-yl)acetic acid] |  |  |  |  |  |  | > 40 | > 40 | > 40 | > 40 | > 40 | > 40 | > 40 |  |  |
| O=C(O)CN1C(=O)/C(=C2/C(=O)Nc3c(Cl)cccc32)SC1=S [Compound 2037, (Z)-2-(5-(7-Chloro-2-oxoindolin-3-ylidene)-4-oxo-2-thioxothiazolidin-3-yl)acetic acid] |  |  |  |  |  |  | > 40 | > 40 | > 40 | > 40 | > 40 | > 40 | > 40 |  |  |
